The values that follow come from US20210138006A1, “Systems, Methods, and Compositions for Treating or Preventing Bacterial Infection and for Reducing or Preventing Bacterial Overpopulation” (BRIGHAM YOUNG UNIVERSITY, priority 2018, published 2021).

In this data set the test system is honeybees (Apis mellifera). The class given is in vivo. The following applies: after fall inspection. From the text:
Treatment Study: This study provides disclosure relating to the potential effectiveness of using phages, such as PL phages, when treating healthy beehives that are not at risk for AFB.
This combined not-at-risk preventative and safety treatment study using PL phages occurred when 96 beehives were observed and assigned to one of three groups to either be control hives, hives treated preventative PL phages, or hives treated with preventative Tylan antibiotic.
Study Design: Test animals—A total of 96 colonies (hives) of honeybees (Apis mellifera) were previously established in two near-by apiaries. Each of the colonies had to meet the following four criteria: a viable laying queen, contain approximately 40,000 or more adult worker bees, have uncapped brood, and have no visible signs of American Foulbrood. All 96 hives met the criteria and were included in the study.
Route of administration: Oral.
Treatment: PL phage cocktail diluted in sugar water.
Objective and design: The objective was to determine the comparative health of beehives left without a treatment to hives prophylactically treated with PL phages or Tylan antibiotic for the prevention of AFB in a longitudinal study.
All 96 beehives were inspected in spring and fall using a 3-brood rack approach, wherein observation of three full brood racks constituted a complete inspection to look for AFB. Hives that looked unusual were inspected beyond the 3-brood racks. For each hive observation upon signs of AFB, the colonies were to be rated on a 0-3 scale based on a modification of the method proposed by Hitchcock et al. (1970). Frames were rated as follows:
For each hive inspected, other observations were also noted, such as signs of chalkbrood, European Foulbrood (EFB), apparent mite infestation, queen health (based on laying patterns, etc.), other obvious disorders, and any colony loss.
Results: AFB was not detected in any hive in any group throughout the study. […] For this study, a hive was counted as “diseased” if it had chalkbrood, had European Foulbrood, or struggled to thrive. […]

Consider `CC[C@H]1OC(=O)C[C@@H](O)[C@H](C)[C@@H](O[C@@H]2O[C@H](C)[C@@H](O[C@H]3C[C@@](C)(O)[C@@H](O)[C@H](C)O3)[C@H](N(C)C)[C@H]2O)[C@@H](CC=O)C[C@@H](C)C(=O)/C=C/C(C)=C/[C@@H]1CO[C@@H]1O[C@H](C)[C@@H](O)[C@@H](OC)[C@H]1OC` [Tylan], for which, under “32 hives per group, control 90.6%”, the “% Healthy Hives (positive health survival rate)” value is on record as 62.5%. Also, the “Diseased or Dead Hives” value (of 32 hives per group, control 3) was found to be 12. Further, for the setting “of 32 hives per group, control 29”, the hives remained healthy is given as 20.
